Read-outs that look alike come from different tables or passages of the source.
Key:
Mcl-1 protein = Mcl-1 protein (UniProtKB primary accession number: Q07820) (Homo sapiens, UniProt Q07820); assay: Inhibition of Mcl-1 by fluorescence polarisation, Method 1; format: binding; conditions: fluorescence polarisation test; Method 2 values are underlined in the patent (underlining not visible here); read-out: IC50 (M) Mcl-1 FP
How it was run: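 Compounds were tested as 11-point serial dilutions at 5% final DMSO against 5 nM Mcl-1 with 1 nM fluorescein-labelled ligand in 10 mM HEPES, 150 mM NaCl, 0.05% Tween 20, pH 7.4. Relative binding potency was read by fluorescence polarisation.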

[1] = test system: H929 multiple myeloma tumour line; assay: In vitro cytotoxicity, Microculture Tetrazolium Assay; format: cell-based; conditions: H929 cells, 48 hours exposure, MTT, read-out: IC50 (μM) MTT H929
Experimental: The cytotoxicity studies were carried out on the H929 multiple myeloma tumour line.
The cells are distributed onto microplates and exposed to the test compounds for 48 hours.

Sequence of Mcl-1 protein (Q07820 whole entry): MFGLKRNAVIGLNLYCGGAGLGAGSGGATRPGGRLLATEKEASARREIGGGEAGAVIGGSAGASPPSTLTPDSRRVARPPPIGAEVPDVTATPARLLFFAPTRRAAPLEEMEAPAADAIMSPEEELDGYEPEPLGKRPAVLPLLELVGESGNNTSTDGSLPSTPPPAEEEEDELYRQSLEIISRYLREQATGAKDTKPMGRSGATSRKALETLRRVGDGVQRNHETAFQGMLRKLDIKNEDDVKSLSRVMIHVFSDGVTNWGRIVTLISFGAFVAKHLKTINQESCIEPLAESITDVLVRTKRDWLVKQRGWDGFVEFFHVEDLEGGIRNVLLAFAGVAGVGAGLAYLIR

| SMILES | IC50 (Mcl-1 protein) [M] | IC50 ([1]; Homo sapiens, NCI-H929, 48 h) [µM] | IC50 [1] [µM] |
| --- | --- | --- | --- |
| Cc1c(-c2c(-c3ccco3)sc3ncnc(OC(Cc4ccccc4OCc4cccc(Cl)n4)C(=O)O)c23)ccc(OCCN2CCN(C)CC2)c1Cl [Example 236, (2R)-2-{[(5Sa)-5-{3-chloro-2-methyl-4-[2-(4-methylpiperazin-1-yl)ethoxy]phenyl}-6-(furan-2-yl)thieno[2,3-d]pyrimidin-4-yl]oxy}-3-{2-[(6-chloropyridin-2-yl)methoxy]phenyl}propanoic acid] | 7.4e-09 | 0.137 |  |
| Cc1c(-c2c(-c3ccco3)sc3ncnc(OC(Cc4ccccc4OCc4cccc(N5CCCC5)n4)C(=O)O)c23)ccc(OCCN2CCN(C)CC2)c1Cl [Example 237, (2R)-2-{[(5Sa)-5-{3-chloro-2-methyl-4-[2-(4-methylpiperazin-1-yl)ethoxy]phenyl}-6-(furan-2-yl)thieno[2,3-d]pyrimidin-4-yl]oxy}-3-(2-{[6-(pyrrolidin-1-yl)pyridin-2-yl]methoxy}phenyl)propanoic acid] | 1.5e-08 | 0.186 |  |
| COc1cccc(COc2ccccc2CC(Oc2ncnc3sc(-c4ccco4)c(-c4ccc(OCCN5CCN(C)CC5)c(Cl)c4C)c23)C(=O)O)n1 [Example 238, (2R)-2-{[(5Sa)-5-{3-chloro-2-methyl-4-[2-(4-methylpiperazin-1-yl)ethoxy]phenyl}-6-(furan-2-yl)thieno[2,3-d]pyrimidin-4-yl]oxy}-3-{2-[(6-methoxypyridin-2-yl)methoxy]phenyl}propanoic acid] | 5.9e-09 | 0.077 |  |
| Cc1c(-c2c(-c3ccco3)sc3ncnc(OC(Cc4ccccc4OCC4CCCC4)C(=O)O)c23)ccc(OCCN2CCN(C)CC2)c1Cl [Example 239, (2R)-2-{[(5Sa)-5-{3-chloro-2-methyl-4-[2-(4-methylpiperazin-1-yl)ethoxy]phenyl}-6-(furan-2-yl)thieno[2,3-d]pyrimidin-4-yl]oxy}-3-[2-(cyclopentylmethoxy)phenyl]propanoic acid] | 1.1e-08 | 0.55 |  |
| Cc1c(-c2c(-c3ccco3)sc3ncnc(OC(Cc4ccccc4OCc4ccccc4)C(=O)O)c23)ccc(OCCN2CCN(C)CC2)c1Cl [Example 240, (2R)-3-[2-(benzyloxy)phenyl]-2-{[(5Sa)-5-{3-chloro-2-methyl-4-[2-(4-methylpiperazin-1-yl)ethoxy]phenyl}-6-(furan-2-yl)thieno[2,3-d]pyrimidin-4-yl]oxy}propanoic acid] | 7.2e-09 | 0.225 |  |
| Cc1c(-c2c(-c3ccco3)sc3ncnc(OC(Cc4ccccc4OCc4ccccn4)C(=O)O)c23)ccc(OCCN2CCN(C)CC2)c1Cl [Example 241, (2R)-2-{[(5Sa)-5-{3-chloro-2-methyl-4-[2-(4-methylpiperazin-1-yl)ethoxy]phenyl}-6-(furan-2-yl)thieno[2,3-d]pyrimidin-4-yl]oxy}-3-[2-(pyridin-2-ylmethoxy)phenyl]propanoic acid] | 5.5e-09 | 0.074 |  |
| Cc1c(-c2c(-c3ccco3)sc3ncnc(OC(Cc4ccccc4OCc4cccnc4)C(=O)O)c23)ccc(OCCN2CCN(C)CC2)c1Cl [Example 242, (2R)-2-{[(5Sa)-5-{3-chloro-2-methyl-4-[2-(4-methylpiperazin-1-yl)ethoxy]phenyl}-6-(furan-2-yl)thieno[2,3-d]pyrimidin-4-yl]oxy}-3-[2-(pyridin-3-ylmethoxy)phenyl]propanoic acid] | 7.3e-09 | 0.09 |  |
| Cc1c(-c2c(-c3ccco3)sc3ncnc(OC(Cc4ccccc4OCc4cccnn4)C(=O)O)c23)ccc(OCCN2CCN(C)CC2)c1Cl [Example 243, (2R)-2-{[(5Sa)-5-{3-chloro-2-methyl-4-[2-(4-methylpiperazin-1-yl)ethoxy]phenyl}-6-(furan-2-yl)thieno[2,3-d]pyrimidin-4-yl]oxy}-3-[2-(pyridazin-3-ylmethoxy)phenyl]propanoic acid] | 5.6e-09 | 0.211 |  |
| Cc1c(-c2c(-c3ccco3)sc3ncnc(O[C@H](Cc4ccccc4OCc4ccco4)C(=O)O)c23)ccc(OCCN2CCN(C)CC2)c1Cl [Example 244, (2R)-2-{[(5Sa)-5-{3-chloro-2-methyl-4-[2-(4-methylpiperazin-1-yl)ethoxy]phenyl}-6-(furan-2-yl)thieno[2,3-d]pyrimidin-4-yl]oxy}-3-[2-(furan-2-ylmethoxy)phenyl]propanoic acid] | 8.6e-09 |  | 0.205 |
| Cc1c(-c2c(-c3ccco3)sc3ncnc(OC(Cc4ccccc4OCc4cccs4)C(=O)O)c23)ccc(OCCN2CCN(C)CC2)c1Cl [Example 245, (2R)-2-{[(5Sa)-5-{3-chloro-2-methyl-4-[2-(4-methylpiperazin-1-yl)ethoxy]phenyl}-6-(furan-2-yl)thieno[2,3-d]pyrimidin-4-yl]oxy}-3-[2-(thiophen-2-ylmethoxy)phenyl]propanoic acid] | 5.8e-09 | 0.099 |  |
| Cc1c(-c2c(-c3ccco3)sc3ncnc(OC(Cc4ccccc4OCc4ccn(C)n4)C(=O)O)c23)ccc(OCCN2CCN(C)CC2)c1Cl [Example 246, (2R)-2-{[(5Sa)-5-{3-chloro-2-methyl-4-[2-(4-methylpiperazin-1-yl)ethoxy]phenyl}-6-(furan-2-yl)thieno[2,3-d]pyrimidin-4-yl]oxy}-3-{2-[(1-methyl-1H-pyrazol-3-yl)methoxy]phenyl}propanoic acid] | 9.1e-09 | 0.324 |  |
| Cc1nccc(COc2ccccc2CC(Oc2ncnc3sc(-c4ccco4)c(-c4ccc(OCCN5CCN(C)CC5)c(Cl)c4C)c23)C(=O)O)n1 [Example 247, (2R)-2-{[(5Sa)-5-{3-chloro-2-methyl-4-[2-(4-methylpiperazin-1-yl)ethoxy]phenyl}-6-(furan-2-yl)thieno[2,3-d]pyrimidin-4-yl]oxy}-3-{2-[(2-methylpyrimidin-4-yl)methoxy]phenyl}propanoic acid] | 8e-09 | 0.022 |  |
| Cc1c(-c2c(-c3ccco3)sc3ncnc(OC(Cc4ccccc4OCc4ccnc(C(F)(F)F)n4)C(=O)O)c23)ccc(OCCN2CCN(C)CC2)c1Cl [Example 248, (2R)-2-{[(5Sa)-5-{3-chloro-2-methyl-4-[2-(4-methylpiperazin-1-yl)ethoxy]phenyl}-6-(furan-2-yl)thieno[2,3-d]pyrimidin-4-yl]oxy}-3-(2-{[2-(trifluoromethyl)pyrimidin-4-yl]methoxy}phenyl)propanoic acid] | 6.9e-09 | 0.015 |  |
| Cc1c(-c2c(-c3ccco3)sc3ncnc(OC(Cc4ccccc4OCc4ccnc(Cl)n4)C(=O)O)c23)ccc(OCCN2CCN(C)CC2)c1Cl [Example 249, (2R)-2-{[(5Sa)-5-{3-chloro-2-methyl-4-[2-(4-methylpiperazin-1-yl)ethoxy]phenyl}-6-(furan-2-yl)thieno[2,3-d]pyrimidin-4-yl]oxy}-3-{2-[(2-chloropyrimidin-4-yl)methoxy]phenyl}propanoic acid] | 4e-09 | 0.023 |  |
| Cc1c(-c2c(-c3ccco3)sc3ncnc(O[C@H](Cc4ccccc4OCc4ccnc(N)n4)C(=O)O)c23)ccc(OCCN2CCN(C)CC2)c1Cl [Example 250, (2R)-3-{2-[(2-aminopyrimidin-4-yl)methoxy]phenyl}-2-{[(5Sa)-5-{3-chloro-2-methyl-4-[2-(4-methylpiperazin-1-yl)ethoxy]phenyl}-6-(furan-2-yl)thieno[2,3-d]pyrimidin-4-yl]oxy}propanoic acid] | 3.6e-09 |  | 0.499 |
| Cc1c(-c2c(-c3ccco3)sc3ncnc(OC(Cc4ccccc4OCc4ccnc(N(C)C)n4)C(=O)O)c23)ccc(OCCN2CCN(C)CC2)c1Cl [Example 251, (2R)-2-{[(5Sa)-5-{3-chloro-2-methyl-4-[2-(4-methylpiperazin-1-yl)ethoxy]phenyl}-6-(furan-2-yl)thieno[2,3-d]pyrimidin-4-yl]oxy}-3-(2-{[2-(dimethylamino)pyrimidin-4-yl]methoxy}phenyl)propanoic acid] | 6.3e-09 | 0.035 |  |
| Cc1c(-c2c(-c3ccco3)sc3ncnc(OC(Cc4ccccc4OCc4ccnc(N5CCOCC5)n4)C(=O)O)c23)ccc(OCCN2CCN(C)CC2)c1Cl [Example 252, (2R)-2-{[(5Sa)-5-{3-chloro-2-methyl-4-[2-(4-methylpiperazin-1-yl)ethoxy]phenyl}-6-(furan-2-yl)thieno[2,3-d]pyrimidin-4-yl]oxy}-3-(2-{[2-(morpholin-4-yl)pyrimidin-4-yl]methoxy}phenyl)propanoic acid] | 4.2e-09 | 0.009 |  |
| CNc1nccc(COc2ccccc2CC(Oc2ncnc3sc(-c4ccco4)c(-c4ccc(OCCN5CCN(C)CC5)c(Cl)c4C)c23)C(=O)O)n1 [Example 253, (2R)-2-{[(5Sa)-5-{3-chloro-2-methyl-4-[2-(4-methylpiperazin-1-yl)ethoxy]phenyl}-6-(furan-2-yl)thieno[2,3-d]pyrimidin-4-yl]oxy}-3-(2-{[2-(methylamino)pyrimidin-4-yl]methoxy}phenyl)propanoic acid] | 3.1e-09 | 0.041 |  |
| Cc1c(-c2c(-c3ccco3)sc3ncnc(OC(Cc4ccccc4OCc4ccnc(NCc5ccccc5)n4)C(=O)O)c23)ccc(OCCN2CCN(C)CC2)c1Cl [Example 254, (2R)-3-(2-{[2-(benzylamino)pyrimidin-4-yl]methoxy}phenyl)-2-{[(5Sa)-5-{3-chloro-2-methyl-4-[2-(4-methylpiperazin-1-yl)ethoxy]phenyl}-6-(furan-2-yl)thieno[2,3-d]pyrimidin-4-yl]oxy}propanoic acid] | 3.3e-09 | 0.044 |  |
| COc1nccc(COc2ccccc2CC(Oc2ncnc3sc(-c4ccco4)c(-c4ccc(OCCN5CCN(C)CC5)c(Cl)c4C)c23)C(=O)O)n1 [Example 255, (2R)-2-{[(5Sa)-5-{3-chloro-2-methyl-4-[2-(4-methylpiperazin-1-yl)ethoxy]phenyl}-6-(furan-2-yl)thieno[2,3-d]pyrimidin-4-yl]oxy}-3-{2-[(2-methoxypyrimidin-4-yl)methoxy]phenyl}propanoic acid] | 7.5e-09 | 0.018 |  |
